Source: US12247033B2, “Triazole-substituted imidazo[1,2-a]pyrimidines as cGAS inhibitors” (GlaxoSmithKline Intellectual Property Development Limited, priority 2022, dated 2025)
Where a name gives a salt, the structure may show the parent alone.

Assays:
CGAS = CGAS whole blood cytokine release assay (384-well, BacMam stimulation, IP-10 by cytometric bead array); type: cell-based; conditions: Homo sapiens, 6 h; read-out: hWB pXC50 (converted)
Description: Blood collection: Blood was collected in a tube containing 10% Sodium Heparin (5 ml/45 ml blood final).
Protocol for CGAS Whole Blood Cytokine Release Assay: Compounds serial diluted at 1:3 were provided at 150 nL per well, in a 384 well polypropylene microplate (cat. 781280; Greiner Bio-One, Frickenhausen, Germany). 5 μL of PBS/20% Null BacMam was dispensed to all wells except for column 18 on a Multidrop Combi (Thermo Scientific, Waltham, MA). 5 uL of PBS was dispensed into column 18. The Bravo (Agilent, Santa Clara, CA) was used to transfer 45 uL of donor derived blood into the compound plates. The Bravo protocol mixed the blood and compound/PBS 5 times. The plates were incubated at 37° C., 5% CO2, for 6 hours. At the 6 hour mark the plates were removed and centrifuged for 10 minutes at 3000 RPM. 3 uL of supernatant was transferred from the plate to a 384 well NBS microplate (cat. 4513; Corning Life Sciences, Corning, NY). These plates were sealed with adhesive foil and stored in a −80 freezer until ready for analysis.
For cytokine detection, Human IP-10 BD cytometric bead array (CBA) beads (BD Biosciences, Franklin Lakes, NJ) were used. Capture bead solution was prepared by performing a 1:50 dilution of the IP-10 capture bead stock solution in BD diluent for serum/plasma (cat. 51-9003991 BD Biosciences, Franklin Lakes, NJ). 2 μL of this solution was added per well to the assay microplates which were then sealed with adhesive foil and incubated at room temperature for 2 h in the dark. Detection reagent was further prepared by performing a 1:50 dilution of the detection reagent stock solution. 2 μL of detection reagent was added per well and microplates were sealed with adhesive foil and incubated at room temperature in the dark for 1 h. After the 1 h incubation 3 uL of BD CBA wash buffer was added per well of the microplates. Data were acquired on an iQue Screener flow cytometer. The iQue used fluorescence detection to quantify the inhibition of IP-10 present in the sample wells. A sip time of 1 second per sample was used. The blue laser with excitation of 488 nm and emission filters 585/40 nm were used to capture the mean and median of IP-10 with the detector in logarithmic mode (FL2-H).
All data analysis was carried out in IDBS ActivityBase XE.

human CGAS (157-522) = human CGAS (157-522) (Homo sapiens, UniProt Q8N884); experiment: biochemical;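 further: biochemical enzyme reaction, 2′3′-cGAMP product measured by RapidFire mass spectrometry (MRM) normalised to c-di-UMP internal standard, inhibition of product formation relative to high and low control wells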
Chain of human CGAS (157-522) (Q8N884 157-522): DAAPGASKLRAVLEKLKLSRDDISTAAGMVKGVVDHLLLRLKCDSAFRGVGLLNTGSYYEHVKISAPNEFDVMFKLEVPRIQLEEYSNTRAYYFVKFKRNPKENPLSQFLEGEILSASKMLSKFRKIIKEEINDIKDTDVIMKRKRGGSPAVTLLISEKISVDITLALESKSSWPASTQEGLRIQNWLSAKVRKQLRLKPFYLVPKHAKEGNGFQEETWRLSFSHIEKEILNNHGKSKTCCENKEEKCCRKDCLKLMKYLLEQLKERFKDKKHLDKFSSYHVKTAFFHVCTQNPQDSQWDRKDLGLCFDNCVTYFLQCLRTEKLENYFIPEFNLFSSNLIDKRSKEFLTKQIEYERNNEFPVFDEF

Compound | IC50 (CGAS) [nM] | IC50 (human CGAS (157-522)) [nM]
COCc1cnc2nc(-c3nc(C(F)F)n[nH]3)c(-c3cnc[nH]3)n2c1 [Example 86, 3-(difluoromethyl)-5-[3-(1H-imidazol-5-yl)-6-(methoxymethyl)imidazo[1,2-a]pyrimidin-2-yl]-1H-1,2,4-triazole] | 50.1 | 3.98
COc1cnc2nc(-c3nc(C(F)(F)F)n[nH]3)c(-c3cnc[nH]3)n2c1 [Example 58, 5-[3-(1H-imidazol-5-yl)-6-methoxyimidazo[1,2-a]pyrimidin-2-yl]-3-(trifluoromethyl)-1H-1,2,4-triazole] | 316 | 10
FC(F)(F)c1n[nH]c(-c2nc3ncc(C4CCCO4)cn3c2-c2cnc[nH]2)n1 (centres unmarked) [Example 82, 5-[3-(1H-imidazol-5-yl)-6-(oxolan-2-yl)imidazo[1,2-a]pyrimidin-2-yl]-3-(trifluoromethyl)-1H-1,2,4-triazole] | 200 | 5.01
FC(F)(F)c1n[nH]c(-c2nc3ncc(CN4CCOCC4)cn3c2-c2c[nH]cn2)n1 [Example 70, 4-{[3-(1H-imidazol-4-yl)-2-[3-(trifluoromethyl)-1H-1,2,4-triazol-5-yl]imidazo[1,2-a]pyrimidin-6-yl]methyl}morpholine] | 2000 | 3.16
Fc1cnc2nc(-c3nc(C(F)(F)F)n[nH]3)c(-c3cn[nH]c3)n2c1 [Example 38, 5-[6-fluoro-3-(1H-pyrazol-4-yl)imidazo[1,2-a]pyrimidin-2-yl]-3-(trifluoromethyl)-1H-1,2,4-triazole] | 1000 | 7.94
O=S1(=O)CCc2nc3nc(-c4nc(C(F)(F)F)n[nH]4)c(-c4cnc[nH]4)n3cc2C1 [Example 104, 6-(1H-imidazol-5-yl)-5-[3-(trifluoromethyl)-1H-1,2,4-triazol-5-yl]-11λ^6-thia-2,4,7-triazatricyclo[7.4.0.0^3,^7]trideca-1,3,5,8-tetraene-11,11-dione] | 6310 | 3.98
FC(F)(F)c1n[nH]c(-c2nc3ncc(COC4CCC4)cn3c2-c2c[nH]cn2)n1 [Example 157, 5-[6-(cyclobutoxymethyl)-3-(1H-imidazol-4-yl)imidazo[1,2-a]pyrimidin-2-yl]-3-(trifluoromethyl)-1H-1,2,4-triazole] | 251 | 2.51
COCC(F)(F)c1ccn2c(-c3cnc[nH]3)c(-c3nc(C(F)(F)F)n[nH]3)nc2n1 [Example 19, 5-[7-(1,1-difluoro-2-methoxyethyl)-3-(1H-imidazol-5-yl)imidazo[1,2-a]pyrimidin-2-yl]-3-(trifluoromethyl)-1H-1,2,4-triazole] | 398 | 6.31
N#CCCOCc1cnc2nc(-c3nc(C(F)(F)F)n[nH]3)c(-c3cnc[nH]3)n2c1 [Example 105, 3-{[3-(1H-imidazol-5-yl)-2-[3-(trifluoromethyl)-1H-1,2,4-triazol-5-yl]imidazo[1,2-a]pyrimidin-6-yl]methoxy}propanenitrile] | 1000 | 3.16
CC(C)(C)C(=O)n1cnc(-c2c(-c3nc(C(F)(F)F)n[nH]3)nc3ncccn23)c1 [Example 81, 2,2-dimethyl-1-(4-{2-[3-(trifluoromethyl)-1H-1,2,4-triazol-5-yl]imidazo[1,2-a]pyrimidin-3-yl}-1H-imidazol-1-yl)propan-1-one] | 158 | 3.98
FC(F)(F)c1n[nH]c(-c2nc3nc(Cl)ccn3c2-c2cnc[nH]2)n1 [Example 7, 5-[7-chloro-3-(1H-imidazol-5-yl)imidazo[1,2-a]pyrimidin-2-yl]-3-(trifluoromethyl)-1H-1,2,4-triazole, trifluoroacetic acid salt] | 1580 | 6.31
CNCc1cnc2nc(-c3nc(C(F)(F)F)n[nH]3)c(-c3cnc[nH]3)n2c1 [Example 75, {[3-(1H-imidazol-5-yl)-2-[3-(trifluoromethyl)-1H-1,2,4-triazol-5-yl]imidazo[1,2-a]pyrimidin-6-yl]methyl}(methyl)amine] | 631 | 10
CC(=O)N1Cc2cn3c(-c4cnc[nH]4)c(-c4nc(C(F)(F)F)n[nH]4)nc3nc2C(F)(F)C1 [Example 87, 1-[13,13-difluoro-6-(1H-imidazol-5-yl)-5-[3-(trifluoromethyl)-1H-1,2,4-triazol-5-yl]-2,4,7,11-tetraazatricyclo[7.4.0.0^3,^7]trideca-1,3,5,8-tetraen-11-yl]ethan-1-one] | > 31600 | 2000
FC(F)(F)c1n[nH]c(-c2nc3ncc(C4CCCC4)cn3c2-c2cnc[nH]2)n1 [Example 16, 5-[6-cyclopentyl-3-(1H-imidazol-5-yl)imidazo[1,2-a]pyrimidin-2-yl]-3-(trifluoromethyl)-1H-1,2,4-triazole, trifluoroacetic acid salt] | 3160 | 3.98
CS(=O)(=O)c1cnc2nc(-c3nc(C(F)(F)F)n[nH]3)c(-c3cnc[nH]3)n2c1 [Example 22, 5-[3-(1H-imidazol-5-yl)-6-methanesulfonylimidazo[1,2-a]pyrimidin-2-yl]-3-(trifluoromethyl)-1H-1,2,4-triazole] | 7940 | 25.1

Results, then the compound that gave them:

IC50 (CGAS) [nM] | IC50 (human CGAS (157-522)) [nM] | Compound
1000 | 3.98 | COCc1cn2c(-c3cnc[nH]3)c(-c3nc(C(F)(F)F)n[nH]3)nc2nc1C(F)(F)F [Example 114, 5-[3-(1H-imidazol-5-yl)-6-(methoxymethyl)-7-(trifluoromethyl)imidazo[1,2-a]pyrimidin-2-yl]-3-(trifluoromethyl)-1H-1,2,4-triazole]
316 | 7.94 | FC(F)(F)c1n[nH]c(-c2nc3nc4c(cn3c2-c2c[nH]cn2)C2CCC(C4)O2)n1 (centres unmarked) [Example 136, 5-(1H-imidazol-4-yl)-6-[3-(trifluoromethyl)-1H-1,2,4-triazol-5-yl]-15-oxa-4,7,9-triazatetracyclo[10.2.1.0^2,^10.0^4,^8]pentadeca-2,5,7,9-tetraene]
631 | 6.31 | FC(F)c1cnc2nc(-c3nc(C(F)(F)F)n[nH]3)c(-c3c[nH]cn3)n2c1 [Example 120, 5-[6-(difluoromethyl)-3-(1H-imidazol-4-yl)imidazo[1,2-a]pyrimidin-2-yl]-3-(trifluoromethyl)-1H-1,2,4-triazole]
1580 | 7.94 | COCc1cn2c(-c3cnc[nH]3)c(-c3nc(C(F)F)n[nH]3)nc2nc1C(F)(F)F [Example 121, 3-(difluoromethyl)-5-[3-(1H-imidazol-5-yl)-6-(methoxymethyl)-7-(trifluoromethyl)imidazo[1,2-a]pyrimidin-2-yl]-1H-1,2,4-triazole]
631 | 3.16 | FC(F)(F)c1n[nH]c(-c2nc3ncc(OCC4CCOC4)cn3c2-c2c[nH]cn2)n1 (centres unmarked) [Example 135, 5-[3-(1H-imidazol-4-yl)-6-[(oxolan-3-yl)methoxy]imidazo[1,2-a]pyrimidin-2-yl]-3-(trifluoromethyl)-1H-1,2,4-triazole]
1260 | 5.01 | CC(C)(C)c1cnc2nc(-c3nc(C(F)(F)F)n[nH]3)c(-c3c[nH]cn3)n2c1 [Example 109, 5-[6-tert-butyl-3-(1H-imidazol-4-yl)imidazo[1,2-a]pyrimidin-2-yl]-3-(trifluoromethyl)-1H-1,2,4-triazole]
398 | 50.1 | N#Cc1cnc2nc(-c3nc(C(F)(F)F)n[nH]3)c(-c3cnc[nH]3)n2c1 [Example 110, 3-(1H-imidazol-5-yl)-2-[3-(trifluoromethyl)-1H-1,2,4-triazol-5-yl]imidazo[1,2-a]pyrimidine-6-carbonitrile]
794 | 12.6 | FC(F)(F)c1n[nH]c(-c2nc3ncc(COCCCC4CCCO4)cn3c2-c2cnc[nH]2)n1 (centres unmarked) [Example 140, 5-[3-(1H-imidazol-5-yl)-6-{[3-(oxolan-2-yl)propoxy]methyl}imidazo[1,2-a]pyrimidin-2-yl]-3-(trifluoromethyl)-1H-1,2,4-triazole]
631 | 2.51 | Nc1ccn2c(-c3cnc[nH]3)c(-c3nc(C(F)(F)F)n[nH]3)nc2n1 [Example 107, 3-(1H-imidazol-5-yl)-2-[3-(trifluoromethyl)-1H-1,2,4-triazol-5-yl]imidazo[1,2-a]pyrimidin-7-amine]
501 | 7.94 | FC(F)(F)c1n[nH]c(-c2nc3ncc(COCC4CCOC4)cn3c2-c2cnc[nH]2)n1 (centres unmarked) [Example 126, 5-[3-(1H-imidazol-5-yl)-6-{[(oxolan-3-yl)methoxy]methyl}imidazo[1,2-a]pyrimidin-2-yl]-3-(trifluoromethyl)-1H-1,2,4-triazole]
